# Experimental data reported in patent US5858978A, “Pharmaceutical compositions containing calcitonin gene-related peptide (CGRP) and use thereof to ameliorate hyperimmune mediated diseases and abnormal conditions” (Yale University, priority 1997, dated 1999).
# Read-outs that look alike come from different tables or passages of the source.
# Legend:
# [1] = system: macrophages; conditions: cited from earlier work
# [2] = system: peritoneal macrophages; assay: Generation of intracellular cAMP in peritoneal macrophages (radioimmunoassay); assay type: cell-based, rat; conditions: for cAMP accumulation in peritoneal macrophages: all time points examined
# Method: (§1) Rat alveolar and peritoneal macrophages were obtained from 12 week old Fisher 344 rats (Charles River, Kingston, N.Y.). Alveolar macrophages were collected by tracheobronchial lavage as previously described (Vignery et al., J. Histochem Cytochem. , 1989). Peritoneal macrophages were collected from the same rats prior to the lung lavage. The collected cells were: (i) washed twice in Minimum Essential Medium with Earle's salts (MEME) supplemented with 2 mM L-glutamine and vitamins; (ii) plated in 6 well dishes at 10^7 cells/ml, 10^6 cells per well, in MEME containing 10% heat inactivated human serum (HS); (iii) incubated for 20 minutes at 37° C. in 5% CO2, 95% air to let the macrophages adhere; (iv) subsequently grown at 10^6 cells/ml of MEME containing 5% heat inactivated HS. Cells were cultured in FCS for the IL-6 bioassay. All tissue culture reagents were purchased from Gibco Laboratories, Grand Island, N.Y. The adherent cell populations were composed of 99% macrophages and a few occasional polymorphonuclear cells as determined by Wright stain.
# (§2) For cAMP studies, cells were grown under the conditions described above but using either 24 or 96 well dishes. Each well contained either 2×10^5 or 5×10^4 cells grown in 800 or 200 μl, respectively. The cells were first washed with warm MEME and subsequently incubated at 37° C. in MEME supplemented with BSA (1 mg/ml) (Sigma Chemical, St. Louis, Mo.) either in the absence or presence of Salmon Calcitonin (sCT) (kindly provided by Dr. Orlowski, Rorer Central Research, Horsham, Pa.), rat calcitonin gene-related peptide (CGRP) (Bachem, Inc., Torrance, Calif.) and 3-isobutyl-1-methylxanthine (IBMX)(Sigma) for the indicated times. Incubations were terminated by aspirating the medium and adding 100 μl of 0.4% perchloric acid to each well. Perchloric acid extracts were neutralized with 1.5M KOH and stored at -20° C. These samples were acetylated and cAMP measured by radioimmunoassay using succinylated ^125 I-labeled cARP (Biomedical Technologies, Inc., Stoughton, Ma.). Results were expressed as fentomoles of CAMP per well. Experiments were performed in duplicates or triplicates and repeated at least 3 times.
# [3] = system: giant cells (fused alveolar macrophages); assay: Generation of intracellular cAMP in giant cells (fused alveolar macrophages), radioimmunoassay; assay type: cell-based, rat
# Method: as §1, §2
# When peritoneal macrophages from the same animals are grown in these conditions, they remain mononucleated and can therefore be used as a nonfusing control population. It was previously confirmed that giant cells differentiate in vitro by actual cell-cell fusion since DNA synthesis cannot be detected and that the total amount of DNA remains constant during culture in both alveolar and peritoneal macrophages. Therefore, the actual number of alveolar macrophages is decreased drastically by day 4 when each giant cell contains hundreds of nuclei. The important point is that the total number of nuclei remains constant so that we refer to giant cells and peritoneal macrophages as such or else as number of plated cells.
# [4] = system: peritoneal macrophages; assay: IL-1 release by peritoneal macrophages (IL-1 bioassay of supernatants); assay type: cell-based, rat; conditions: for IL-1 activity detected in peritoneal macrophage supernatants: added to release medium on day 3, 24 hour release
# Method: as §1
# (§3) To estimate the release of IL-1 and IL-6 by peritoneal macrophages and fused alveolar macrophages, the cells were collected and cultured as described above. Prior to perform the release, the cells were washed twice with warm MEME and subsequently incubated for 24 hours in 1 ml of MEME supplemented with 5% of HS or FCS, with or without agonist. At the termination of the release, the supernatant were collected, spun at 400 g for 10 minutes, transferred to microfuge tubes and stored at -20° C. until assayed. Macrophages remained adherent and viable in all experiments as determined by DNA measurements and trypan blue exclusion.
# (§4) IL-1 activity in the macrophage supernatants was measured according to Gillis and Mizel (Proc. Natl. Acad. Sci., USA, 1981, 78:1133-1137). LBRM-33 cells, clones 1A5 and 5A4 (ATCC, Rockville, Md.) were stimulated with either PHA (Gibco), rm IL-1β or log2 dilutions of the macrophage supernatants. LBRM-33 lymphocyte supernatants were harvested from 24 hour cultures and subsequently tested for IL-2 activity using a standard microassay, Gillis et al. (J. Immunol., 1978, 120:2027-2032), based on the IL-2 dependent exponential proliferation of a murine cytotoxic T-cell line CTLL (ATCC, Rockville, Md.), Gillis and Smith (Nature (London), 1977, 268:154-156). CTLL cells were cultured in the presence of a log2 dilution series of putative IL-2 containing samples. After 24 hours, the cells were exposed to 0.5 μCi[^3 H]dThd (20 mCi/mmol, New England Nuclear) for an additional 4 hours after which the cultures were harvested onto glass fiber filter strips with the aid of a multiple automated sample harvester (MASH 11, Microbiological Associates, Bethesda, Md.) [^3 H]dThd incorporation was determined by direct counting.
# [5] = system: giant cells (fused alveolar macrophages); assay: IL-1 release by giant cells (fused alveolar macrophages), IL-1 bioassay of supernatants; assay type: cell-based, rat; conditions: added to release medium on day 3, 24 hour release
# Method: as §1, §3
# IL-1 activity in the macrophage supernatants was measured according to Gillis and Mizel (Proc. Natl. Acad. Sci., USA, 1981, 78:1133-1137). LBRM-33 cells, clones 1A5 and 5A4 (ATCC, Rockville, Md.) were stimulated with either PHA (Gibco), rm IL-1β or log2 dilutions of the macrophage supernatants. […] After 24 hours, the cells were exposed to 0.5 μCi[^3 H]dThd (20 mCi/mmol, New England Nuclear) for an additional 4 hours after which the cultures were harvested onto glass fiber filter strips with the aid of a multiple automated sample harvester (MASH 11, Microbiological Associates, Bethesda, Md.) [^3 H]dThd incorporation was determined by direct counting.
# When peritoneal macrophages from the same animals are grown in these conditions, they remain mononucleated and can therefore be used as a nonfusing control population. It was previously confirmed that giant cells differentiate in vitro by actual cell-cell fusion since DNA synthesis cannot be detected and that the total amount of DNA remains constant during culture in both alveolar and peritoneal macrophages. […]
# [6] = system: peritoneal macrophages and giant cells; assay: IL-6 release by peritoneal and fused alveolar macrophages (IL-6 bioassay, B13.29 subclone B9); assay type: cell-based, rat
# Method: as §1, §3
# Five thousand,B13.29 cells subclone B9 (donated by Dr. Thomas Kupper, Washington University of School of Medicine, Washington, Mo.) were cultured in the presence of a log2 dilution series of macrophage supernatants or standard dilutions of rmIL-6 according to Aarden, L. A. ( Eur. J. Immunol., 1987, 17:1411-1416). […]
# [7] = system: LBRM-33 cells; assay: IL-1 bioassay with CGRP added to IL-1 containing medium (LBRM-33 cells, CTLL readout); assay type: cell-based, murine
# Method: as §4
# [8] = system: CTLL cells; assay: IL-2 dependent proliferation of CTLL cells treated directly; assay type: cell-based, murine; conditions: in the presence of IL-2
# Method: as §4
# [9] = system: chronic rheumatoid arthritis; assay: Treatment of chronic rheumatoid arthritis in a human being; assay type: in vivo; conditions: I.M. administration of 0.5 mg every 24 hours until relief
molecule,measurement,setting,value
calcitonin [CT],macrophage activation,[1],prevented macrophage activation
"CC(C)Cn1c(=O)n(C)c(=O)c2[nH]cnc21 [IBMX, 3-isobutyl-1-methylxanthine]",cAMP accumulation in peritoneal macrophages,[2],not able at any time point measured to induce a cAMP accumulation
same,cAMP accumulation in giant cells,"[3]; fused alveolar macrophages, any time point measured",not able at any time point measured to induce a cAMP accumulation
Rat Calcitonin Gene-Related Peptide [CGRP],IL-1 bioactivity in supernatants of vitamin D3 stimulated peritoneal macrophages,"[4]; 1,25(OH)2-vitamin D3 stimulated peritoneal macrophages",reduce significantly
same,IL-1 activity detected in peritoneal macrophage supernatants,[4],prevented the release of IL-1 by both cell types
same,IL-1 activity detected in giant cell supernatants,[5],prevented the release of IL-1 by both cell types
same,IL-6 activity level in macrophage supernatants,[6],neither sCT nor CGRP treatment of the cells modified this level
same,half maximal concentration of cAMP,"[2]; peritoneal macrophages, 2 minutes incubation in the presence of IBMX",80 fmoles per 5×10^4 plated cells
same,EC50,"[2]; peritoneal macrophages, 2 minutes incubation in the presence of IBMX, read-out: concentration giving half maximal concentration of cAMP",2 nM
same,half maximal concentration of cAMP,"[3]; fused alveolar macrophages, 2 minutes incubation in the presence of IBMX",300 fmoles per 5×10^4 plated cells
same,EC50,"[3]; fused alveolar macrophages, 2 minutes incubation in the presence of IBMX, read-out: concentration giving half maximal concentration of cAMP",2 nM
same,cAMP accumulation compared with CT,"[3]; macrophages, comparison CGRP vs CT",larger accumulation of cAMP in macrophages than CT
same,proliferative response of CTLL cytotoxic T cells in the IL-1 bioassay,[7],prevents the proliferative response
same,proliferation of CTLL cells,[8],did not prevent significantly their proliferation
same,"symptoms of the disease, e.g. pain and swelling of the affected joints",[9],amelioration of the symptoms of the disease
same,ability of macrophages to act as APC,[1],profoundly inhibit
same,ability of macrophages to produce H2O2 in response to IFN,[1],profoundly inhibit
"CC(C)C[C@H](NC(=O)[C@H](CCCCN)NC(=O)CNC(=O)[C@H](CC(C)C)NC(=O)[C@@H](NC(=O)[C@@H]1CSSC[C@H](N)C(=O)N[C@@H](CO)C(=O)N[C@@H](CC(N)=O)C(=O)N[C@@H](CC(C)C)C(=O)N[C@@H](CO)C(=O)N[C@@H]([C@@H](C)O)C(=O)N1)C(C)C)C(=O)N[C@@H](CO)C(=O)N[C@@H](CCC(N)=O)C(=O)N[C@@H](CCC(=O)O)C(=O)N[C@@H](CC(C)C)C(=O)N[C@@H](Cc1c[nH]cn1)C(=O)N[C@@H](CCCCN)C(=O)N[C@@H](CC(C)C)C(=O)N[C@@H](CCC(N)=O)C(=O)N[C@H](C(=O)N[C@@H](Cc1ccc(O)cc1)C(=O)N1CCC[C@H]1C(=O)N[C@@H](CCCNC(=N)N)C(=O)N[C@H](C(=O)N[C@@H](CC(N)=O)C(=O)N[C@H](C(=O)NCC(=O)N[C@@H](CO)C(=O)NCC(=O)N[C@H](C(=O)N1CCC[C@H]1C(N)=O)[C@@H](C)O)[C@@H](C)O)[C@@H](C)O)[C@@H](C)O [sCT, Salmon Calcitonin]",IL-1 activity detected in giant cell supernatants,[5],reduced significantly
same,IL-6 activity level in macrophage supernatants,[6],neither sCT nor CGRP treatment of the cells modified this level
same,cAMP accumulation in peritoneal macrophages,[2],failed to induce a response
same,time of peak of cAMP accumulation after addition of the peptide,"[3]; fused alveolar macrophages, absence of IBMX",5 min
same,lag time to cAMP accumulation,"[3]; fused alveolar macrophages, with 10 μM IBMX",2 min
same,time at which cAMP returned to basal level,"[3]; giant cells, absence of IBMX",15 min
same,time at which cAMP returned to basal level,"[3]; giant cells, presence of IBMX",30 min
same,half maximal cAMP accumulation,"[3]; giant cells, sCT dose response",50 fmoles per 6.4×10^4 plated cells
same,EC50,"[3]; giant cells, sCT dose response, read-out: concentration for half maximal stimulation of cAMP accumulation",2 nM
"C=C1/C(=C\C=C2/CCC[C@]3(C)[C@@H]([C@H](C)CCCC(C)(C)O)CC[C@@H]23)C[C@@H](O)C[C@@H]1O [1,25(OH)2 -vitamin D3]",IL-1 activity detected in peritoneal macrophage supernatants,[4],"stimulated the proliferation of CTLL cells, and probably IL-1 release"
same,IL-1 activity detected in giant cell supernatants,[5],fail to respond
same,IL-6 activity level in macrophage supernatants,[6],"neither CGRP nor 1,25(OH)2 -vitamin D3 appear to significantly alter this process"
C=C[C@@]1(C)CC(=O)[C@]2(O)[C@@]3(C)[C@@H](O)CCC(C)(C)[C@@H]3[C@H](O)[C@H](OC(C)=O)[C@@]2(C)O1 [forskolin],IL-1 activity detected in peritoneal macrophage supernatants,[4],as effective as CGRP in blocking the secretion of IL-1
same,IL-1 activity detected in giant cell supernatants,[5],as effective as CGRP in blocking the secretion of IL-1
